Laboratory results reported in article PMC10553838, “Functional and structural insights into the multi-step activation and catalytic mechanism of bacterial ExoY nucleotidyl cyclase toxins bound to actin-profilin” (PLOS Pathogens, 2023).

Assays:
Type in all cases: biochemical
[1] = molecular target: T1, Vn-ExoY (Vn-ExoY^455-863) activated by G-actin-ATP/ADP-LatB (Vibrio nigripulchritudo, UniProt A0A9P1NJI6); assay: cCMP synthesis, [alpha-33P]NTP assay; conditions: 2 mM CTP, MgCl2, 6 uM LatB-Mg-G-actin, pH 8.0, 30 °C; labelled compound
T1 construct: gene VIBNI_0210; ExoY effector domain of MARTX toxin, residues 3455-3863, N-terminal twin-Strep-tag with PreScission site (cleaved for crystals), E. coli BL21(DE3); with rabbit skeletal muscle G-actin; with Actin, alpha skeletal muscle

[2] = molecular target: T2, Pa-ExoY activated by F-actin (Pseudomonas aeruginosa, UniProt O85345); assay: cGMP synthesis, [alpha-33P]NTP assay; conditions: 2 mM GTP, MgCl2, 3 uM Mg-F-actin, pH 8.0, 30 °C; labelled compound
T2 construct: residues 20-378, N-terminal twin-Strep-tag (ST2), E. coli BL21(DE3), 44 kDa monomer; with Actin, alpha skeletal muscle

[3] = molecular target: T2, Pa-ExoY activated by F-actin; assay: cUMP synthesis, [alpha-33P]NTP assay; conditions: 2 mM UTP, MgCl2, 6 uM Mg-F-actin, pH 8.0, 30 °C; labelled compound

Nc1ccn([C@@H]2O[C@H](COP(=O)(O)OP(=O)(O)OP(=O)(O)O)[C@@H](O)[C@H]2O)c(=O)n1 [CTP]
cCMP synthesis, [alpha-33P]NTP assay [1]: cCMP synthesis catalysed by wild-type or mutants of Vn-ExoY activated by G-actin

Nc1nc2c(ncn2[C@@H]2O[C@H](COP(=O)(O)OP(=O)(O)OP(=O)(O)O)[C@@H](O)[C@H]2O)c(=O)[nH]1 [GTP]
cGMP synthesis, [alpha-33P]NTP assay [2]: cGMP synthesis catalysed by wild-type or mutants of Pa-ExoY activated by F-actin

O=c1ccn([C@@H]2O[C@H](COP(=O)(O)OP(=O)(O)OP(=O)(O)O)[C@@H](O)[C@H]2O)c(=O)[nH]1 [UTP]
cUMP synthesis, [alpha-33P]NTP assay [3]: cCMP and cUMP synthesis catalysed by wild-type or mutants of Pa-ExoY activated by F-actin
